One test deals with alpha-2-receptor. Briefly: radioligand binding, [3H]-rauwolscine, rat cerebral cortices. Conditions: for Ki: rat cerebral cortices, [3H]-rauwolscine; for alpha-2-Selectivity Ki alpha-1/Ki alpha-2: ratio Ki alpha-1/Ki alpha-2. As to the method: (§1) The compounds were assessed for alpha-adrenergic receptor subtype selectivity by use of radioligand binding techniques as described previously (DeBernardis et.al. J. Med. Chem. 28 1398 (1985)). Affinity for the alpha-1-receptor was assessed using rat liver homogenates and the radioligand [^3 H]-prazosin; whereas for the alpha-2-receptor, rat cerebral cortices and the radioligand [^3 H]-rauwolscine were utilized. Results obtained from the binding studies are shown in Table 1 for a representative sample of compounds disclosed herein.

In the next test the target is T1, alpha-1-receptor (Rattus norvegicus, UniProt P15823).
T1 construct: rat liver homogenates; from tissue; host or cells: rat liver homogenate
T1 sequence (P15823 1-515): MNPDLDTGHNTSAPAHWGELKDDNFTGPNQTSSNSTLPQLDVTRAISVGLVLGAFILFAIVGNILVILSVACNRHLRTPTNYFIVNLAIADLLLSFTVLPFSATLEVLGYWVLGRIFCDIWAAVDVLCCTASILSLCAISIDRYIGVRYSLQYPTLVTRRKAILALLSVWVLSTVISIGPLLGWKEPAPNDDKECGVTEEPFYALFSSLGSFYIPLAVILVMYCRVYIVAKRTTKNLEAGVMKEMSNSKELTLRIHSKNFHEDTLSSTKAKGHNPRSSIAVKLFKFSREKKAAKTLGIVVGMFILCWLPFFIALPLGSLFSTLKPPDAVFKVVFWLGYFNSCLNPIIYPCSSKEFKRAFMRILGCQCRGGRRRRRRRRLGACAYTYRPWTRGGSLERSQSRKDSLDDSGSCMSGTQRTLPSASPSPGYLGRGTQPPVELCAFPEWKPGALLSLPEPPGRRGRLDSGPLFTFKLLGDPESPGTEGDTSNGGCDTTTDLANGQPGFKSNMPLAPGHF
Kind of test: radioligand binding, [3H]-prazosin, rat liver homogenates. As to the method: as §1

Counter-ions that a name gives are not always drawn.

Turning to `COc1ccc2c(c1)OCCC2CN(C)CCc1cccc(Cl)c1` (stereo not drawn) [Example 4, 4-((N-Methylamino)methyl-N-(2-(m-chlorophenyl)ethyl))-7-methoxy chroman hydrochloride], the inhibition constant Ki (usually a dissociation constant, usually derived from enzyme kinetics or from competition with a known ligand) at alpha-2-receptor was determined as 24 nM; at alpha-1-receptor it was 260 nM. The “alpha-2-Selectivity Ki alpha-1/Ki alpha-2” value with alpha-2-receptor is recorded as 11.

For the compound `CCN(CCc1cccc(Cl)c1)CC1CCOc2cc(OC)ccc21` (stereo not drawn) [Example 6, 4-((N-Ethylamino)methyl-N-(2-(m-chlorophenyl)ethyl))-7-methoxy chroman hydrochloride], at alpha-2-receptor, the affinity corresponds to a Ki of 34 nM and the “alpha-2-Selectivity Ki alpha-1/Ki alpha-2” value came out at 33. On alpha-1-receptor, affinity was put at a Ki of 1140 nM.

For the compound `COc1ccc2c(c1)OCCC2CN(C)CCc1cccs1` (stereo not drawn) [Example 7, 4-((N-Methylamino)methyl-N-(2-(2-thienyl)ethyl))-7-methoxy chroman hydrochloride], the Ki at alpha-2-receptor was found to be 10 nM; on alpha-1-receptor it was 590 nM. Besides, the “alpha-2-Selectivity Ki alpha-1/Ki alpha-2” value in the test with alpha-2-receptor is reported as 59.

`COc1ccc2c(c1OC)SCCC2CN(C)CCc1cccs1` (stereo not drawn) [Example 13, 4-((N-Methylamino)methyl-N-(2-(2-thienyl)ethyl))-7,8-dimethoxy thiochroman hydrochloride]: the Ki on alpha-2-receptor was found to be 3 nM; on alpha-1-receptor, 96 nM. Besides, the “alpha-2-Selectivity Ki alpha-1/Ki alpha-2” value in the test with alpha-2-receptor turned out to be 32.

As for `COc1ccc2c(c1OC)OCCC2CN(C)CCc1cccc(F)c1` (stereo not drawn) [Example 25, 4-(N-Methylamino)methyl-N-(2-(m-fluorophenyl)ethyl))-7,8-dimethoxy chroman hydrochloride], the Ki at alpha-2-receptor was determined as 3 nM; on alpha-1-receptor, 550 nM. For the same compound, the “alpha-2-Selectivity Ki alpha-1/Ki alpha-2” value in the test with alpha-2-receptor came out at 183.

On to `COc1ccc2c(c1OC)OCCC2CN(C)CCc1cccs1` (stereo not drawn) [Example 26, 4-((N-Methylamino)methyl-N-(2-(2-thienyl)ethyl))-7,8-dimethoxy chroman hydrochloride], for which the Ki stood at 5.8 nM at alpha-2-receptor and 10000 nM at alpha-1-receptor. The “alpha-2-Selectivity Ki alpha-1/Ki alpha-2” value in the test on alpha-2-receptor was found to be 1724.

With `CCN(CCc1cccs1)CC1CCOc2c1ccc(OC)c2C` (stereo not drawn) [Example 28, 4-((N-Ethylamino)methyl-N-(20(2-thienyl)ethyl)-7-methoxy-8-methylchroman hydrochloride], at alpha-2-receptor, the affinity corresponds to a Ki of 34 nM and the “alpha-2-Selectivity Ki alpha-1/Ki alpha-2” value is on record as 29. Moreover, the affinity at alpha-1-receptor, expressed as Ki, was 1000 nM.

The values above are taken from patent publication US5140039A, “Aminomethyl-thiochroman compounds” (Abbott Laboratories, priority 1991, dated 1992).
